“Also recorded” adds a separate entry of the source. Like-named read-outs stand apart in the source and are kept apart here.
Key:
κ-opioid receptors = conditions: in vivo; cited from earlier work
Sprague-Dawley rats [1] = conditions: cited from earlier work; for ED50 / Time to maximum antinociception: i.c.v.
Sprague-Dawley rats [2] = assay type: in vivo, rat (Sprague-Dawley)
Sprague-Dawley rats [3] = assay type: in vivo, rat (Sprague-Dawley); remark: listed apart in the source
Dark Agouti rats [4] = conditions: rat, in vivo, sc
Sprague-Dawley rats [5] = test system: Sprague-Dawley rats
Dark Agouti rats [6] = conditions: s.c. oxycodone; cited from earlier work
humans = conditions: naive human adult, every four hours, cited from earlier work
surgical patients [7] = conditions: i.v. alone; cited from earlier work
rats = conditions: systemic oxycodone; cited from earlier work
Dark Agouti rats [8] = test system: Dark Agouti rats; design: species or system rat (Dark Agouti); conditions: rat, in vivo, sc
surgical patients [9] = assay type: in vivo, human; conditions: i.v. morphine 2.0 mg plus oxycodone 2.0 mg; oxycodone 10 mg alone
Dark Agouti rats [10] = assay type: in vivo, rat (Dark Agouti); conditions: any time
[11] = test system: fetal dorsal root ganglion sensory neurones; conditions: cited from earlier work
[12] = cited from earlier work
κ2a-2 opioid receptor = conditions: κ2a-2 subtype; cited from earlier work
[13] = test system: δ- relative to κ-opioid receptors; conditions: cited from earlier work
[14] = test system: δ-opioid receptors relative to μ-opioid receptors; conditions: cited from earlier work

CCC12CCN(CC3CC3)C(C(=O)c3ccc(O)cc31)C2C (centres unmarked) [ethylketazocine]
Antinociception profile (κ-opioid receptors): antinociception characterised by a rapid onset of action and a single antinociceptive phase

CCC12CCN(CC3(O)CC3)C(Cc3ccc(O)cc31)C2(C)C (centres unmarked) [bremazocine]
Antinociception profile (κ-opioid receptors): antinociception characterised by a rapid onset of action and a single antinociceptive phase

COc1ccc2c3c1O[C@H]1C(=O)CC[C@@]4(O)[C@@H](C2)N(C)CC[C@]314 [oxycodone]
Reversal of oxycodone/morphine antinociception by naloxone (Sprague-Dawley rats [1]; i.c.v. naloxone (55 nmol)): naloxone-reversible antinociceptlon | Time by which antinociception is essentially complete (Sprague-Dawley rats [1]; i.c.v. oxycodone, post-dosing): ≤ 90 min | ED50 (Sprague-Dawley rats [1]): 78 nmol | Time to maximum antinociception (Sprague-Dawley rats [1]): ≤ 7 min | Time to maximum antinociception (Sprague-Dawley rats [1]; listed as Oxycodone): 5 to 7 min | Time of peak antinociception (Sprague-Dawley rats [2]; i.c.v. oxycodone 200 nmol): 5 min | Time to return to baseline values (Sprague-Dawley rats [2]; i.c.v. oxycodone 200 nmol): ≤ 90 min | Antinociception peak (% MPE) (Sprague-Dawley rats [2]; i.c.v. oxycodone 200 nmol, 5 min): 100 % MPE | Duration of action of oxycodone (Sprague-Dawley rats [2]; oxycodone 200 nmol i.c.v. alone): 90 min | Duration of antinociception (Sprague-Dawley rats [3]; i.c.v. equipotent doses administered separately): 90 min | Antinociception (Sprague-Dawley rats [3]; i.c.v. oxycodone 40 nmol alone): no antinociception was observed; also recorded: most of the %MPE values were negative | Failure of eye reflex test (Dark Agouti rats [4]): approximately 40 % of the time | Failure of righting reflex test (Dark Agouti rats [4]): ~50 % of the time | Loss of landing reflex (Dark Agouti rats [4]): no loss of the landing reflex | Loss of righting or landing reflexes (Dark Agouti rats [4]): no loss of the righting or landing reflexes | Sedation (Dark Agouti rats [4]): markedly sedated compared with control rats | Catatonic behaviour (Sprague-Dawley rats [5]; i.c.v. oxycodone 200 nmol): nor did they exhibit the catatonic behaviour | Spontaneous bladder emptying or incontinence (Sprague-Dawley rats [5]; i.c.v., oxycodone 200 nmol, morphine 78 nmol): did not exhibit any signs of spontaneous bladder emptying or incontinence | Antinociception (Dark Agouti rats [6]): achieved maximum antinociception | Lower threshold initial dose producing analgesia (humans; oral): 10 mg | Dose used for intubation (surgical patients [7]): approximately 10 mg | Catatonic behaviour (rats): catatonic behaviour observed | ED50 oxycodone dose (Dark Agouti rats [8]): 0.44 (±0.04) mg | Time of onset of antinociception (%MPE≥30%) (Dark Agouti rats [8]): 12 min | Time to maximum antinociception (Tmax) (Dark Agouti rats [8]): 20 min | Onset of clinical effect (surgical patients [9]): ~5 min | Antinociception (% MPE) (Dark Agouti rats [10]; i.p. oxycodone 571 nmol alone): ≤ 50 % MPE

O=C1CC[C@@]2(O)[C@H]3Cc4ccc(O)c5c4[C@@]2(CCN3CC2CC2)[C@H]1O5 [naltrexone]
Action potential duration (APD) [11]: marked shortening of the action potential duration (APD)

C=CCN1CC[C@]23c4c5ccc(O)c4O[C@H]2/C(=N/N=C2\CC[C@@]4(O)[C@H]6Cc7ccc(O)c8c7[C@@]4(CCN6CC=C)[C@H]2O8)CC[C@@]3(O)[C@H]1C5 [naloxonazine]
Duration of action of oxycodone after antagonist (Sprague-Dawley rats [2]; rat, in vivo): 60 min | Effect on morphine antinociception (Sprague-Dawley rats [2]; rat, in vivo): completely attenuated; also recorded: attenuated the antinociceptive effects | Effect on oxycodone antinociception (Sprague-Dawley rats [2]; rat, in vivo): minor effect on the observed antinocicepfion; also recorded: magnitude of antinociception did not appear to be significantly reduced during the first 15 min; also recorded: almost no effect; also recorded: did not attenuate | Reduction of %MPE values versus untreated rats (Sprague-Dawley rats [2]; rat, in vivo): 5-10% | Excitatory behaviour (Sprague-Dawley rats [5]; rat, in vivo): minor excitatory behaviour (shaking and teeth chattering) | Sensitivity to external stimuli versus untreated rats (Sprague-Dawley rats [5]; rat, in vivo): more sensitive to external stimuli (touch and sound) | Effect on DAMGO antinociception ([12]; naloxonazine): antagonise the antinociceptive effects | Effect on DPDPE antinociception ([12]; naloxonazine): did not reduce the antinociception | Effect on morphine antinociception ([12]; naloxonazine): antagonise the antinociceptive effects

Oc1ccc2c3c1O[C@H]1c4[nH]c5c(c4C[C@@]4(O)[C@@H](C2)N(CC2CC2)CC[C@]314)C[C@@]1(O)[C@H]2Cc3ccc(O)c4c3[C@@]1(CCN2CC1CC1)[C@H]5O4 [nor-BNI, nor-binaltorphimine]
Effect on U69,593 antinociception (Sprague-Dawley rats [2]; rat, in vivo): complete attenuation of the antinociceptive effects; also recorded: markedly attenuated | Effect on bremazocine antinociception (Sprague-Dawley rats [2]; rat, in vivo): complete attenuation of the antinociceptive effects; also recorded: markedly attenuated | Effect on morphine antinociception (Sprague-Dawley rats [2]; rat, in vivo): not attenuated; also recorded: no effect; also recorded: did not attenuate | Effect on oxycodone antinociception (Sprague-Dawley rats [2]; rat, in vivo): complete attenuation of the antinociceptive effects; also recorded: markedly attenuated; also recorded: completely attenuated; also recorded: completely attentuated; also recorded: attenuated only by nor-BNI | Effect on U69,593 antinociception ([12]; nor-BNI): antagonize the antinociceptive effects | Effect on bremazocine antinociception ([12]; nor-BNI): antagonize the antinociceptive effects | Ki (κ2a-2 opioid receptor): 5.9 nM

Oc1ccc2c3c1O[C@H]1c4[nH]c5ccccc5c4C[C@@]4(O)[C@@H](C2)N(CC2CC2)CC[C@]314 [naltrindole]
%MPE values versus pre-dosing baseline (Sprague-Dawley rats [2]; rat, in vivo): not significantly different (p>0.05) from pre-dosing baseline values | Effect on DPDPE antinociception (Sprague-Dawley rats [2]; rat, in vivo): significantly attenuated (p<0.05); also recorded: completely attenuated | Effect on oxycodone antinociception (Sprague-Dawley rats [2]; rat, in vivo): did not significantly attenuate (p>0.05); also recorded: failed to attenuate | Selectivity for δ- relative to κ-opioid receptors [13]: 10,000 fold | Selectivity for δ- relative to μ-opioid receptors [14]: 100 fold

CN1CC[C@]23c4c5ccc(O)c4O[C@H]2[C@@H](O)C=C[C@H]3[C@H]1C5 [morphine]
ED50 (Sprague-Dawley rats [1]): 34 nmol | Degree of antinociception (%MPE) (Sprague-Dawley rats [3]; i.c.v. morphine 15 nmol alone, any time in 3 h): ≤ 20% | Failure of eye reflex test (Dark Agouti rats [4]): approximately 40 % of the time | Failure of righting reflex test (Dark Agouti rats [4]): approximately 33 % of the time | Lower threshold initial dose producing analgesia (humans; intravenous): 4 to 5 mg | Lower threshold initial dose producing analgesia (humans; oral): 30 mg | Dose used for intubation (surgical patients [7]): approximately 10 mg | Time of onset of antinociception (%MPE≥30%) (Dark Agouti rats [8]): 22 min | Antinociception (% MPE) (Dark Agouti rats [10]; i.p. morphine 621 nmol alone): ≤ 50 % MPE

C=CCN1CC[C@]23c4c5ccc(O)c4O[C@H]2C(=O)CC[C@@]3(O)[C@H]1C5 [naloxone]
Reversal of oxycodone/morphine antinociception by naloxone (Sprague-Dawley rats [1]; rat, in vivo): completely reversible; also recorded: completely attenuated | Action potential duration (APD) [11]: marked shortening of the action potential duration (APD)

Source: patent publication US6310072A (priority 1995, dated 2001)
